# Experimental data as given in paper PMC12206857 (Frontiers in Microbiology, 2025).
# “Also recorded” adds a separate entry of the source. Like-named read-outs stand apart in the source and are kept apart here. *1 amine or outer side, *2 acyl side, *3 side chain or, on linkers, in order; H or OH if unused. Where a SMILES comes first, the peptide text is derived from it. [ ]: non-standard residue; d: D form. X1 = CC(C)CCCCCCCCC[C@H](CC(=O)[*:2])N[*:1]
# Legend:
# F. graminearum [1] = type: physicochemical, Fusarium graminearum; conditions: filter paper method; for Effect of divalent cations Fe2+, Mg2+, Ca2+ on antifungal activity: 10 nM metal ion; for Thermal stability of antifungal activity: 25°C, 50°C, 100°C water for 30 min
# F. graminearum [2] = type: cell-based, Fusarium graminearum; conditions: DiSC3(5) fluorescence
# F. graminearum hyphae = type: cell-based, Fusarium graminearum; conditions: 16 and 32 μg/mL, 12 h in PDB at 28°C
# proteinase K = proteinase K (Parengyodontium album, UniProt P06873); conditions: n = 3
# papain = molecular target: T1, papain (Carica papaya, UniProt P00784); conditions: n = 3
# T1 sequence (P00784 134-345): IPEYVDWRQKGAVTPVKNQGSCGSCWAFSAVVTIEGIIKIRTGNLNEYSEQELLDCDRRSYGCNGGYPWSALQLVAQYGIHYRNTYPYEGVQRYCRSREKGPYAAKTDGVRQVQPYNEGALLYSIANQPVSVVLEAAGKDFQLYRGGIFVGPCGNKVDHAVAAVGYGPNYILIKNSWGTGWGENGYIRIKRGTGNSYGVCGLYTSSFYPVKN
# F. graminearum [3] = conditions: mixture of bacillomycin D with different fatty acid chain lengths; ref Gu et al., 2017; cited from earlier work
# trypsin = conditions: 5 mg/mL enzyme, 1 h, 37°C, stopped 10 min at 100°C; read-out antifungal activity against F. graminearum by filter paper method; n = 3
# pepsin = conditions: 5 mg/mL enzyme, 1 h, 37°C, stopped 10 min at 100°C; read-out antifungal activity against F. graminearum by filter paper method; n = 3
# DON and ZEN = test system: DON and ZEN; set-up: species or system Fusarium graminearum on corn seeds; conditions: in vivo
# F. graminearum [4] = type: in vivo, Fusarium graminearum on corn seeds; conditions: seeds soaked in 64 μg/mL, sprayed with spores 1 × 10^5 CFU/mL, 28°C, 10 seeds per group
# F. graminearum [5] = type: cell-based, Fusarium graminearum; conditions: dose-dependent, DCFH-DA fluorescence
# Fusarium oxysporum = conditions: 25 μg/mL or 50 μg/mL; ref Hua et al., 2023; cited from earlier work
# F. graminearum conidia = conditions: ref Gong et al., 2015; cited from earlier work
# F. graminearum cells = conditions: ref Liang et al., 2023; cited from earlier work
# Sequence of proteinase K (P06873 106-384): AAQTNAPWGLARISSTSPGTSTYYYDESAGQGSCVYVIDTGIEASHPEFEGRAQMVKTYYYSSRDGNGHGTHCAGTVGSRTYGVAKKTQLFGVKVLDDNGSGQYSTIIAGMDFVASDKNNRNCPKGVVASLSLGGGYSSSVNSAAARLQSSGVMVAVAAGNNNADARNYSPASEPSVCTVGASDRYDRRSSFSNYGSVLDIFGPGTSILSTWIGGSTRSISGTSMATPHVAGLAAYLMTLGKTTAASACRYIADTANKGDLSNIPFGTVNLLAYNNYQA
compound,measurement,setting,value
"CC(C)CCCCCCCCC[C@@H]1CC(=O)N[C@@H](CC(N)=O)C(=O)N[C@H](Cc2ccc(O)cc2)C(=O)N[C@H](CC(N)=O)C(=O)N2CCC[C@H]2C(=O)N[C@@H](CCC(=O)O)C(=O)N[C@H](CO)C(=O)N[C@@H]([C@@H](C)O)C(=O)N1 [bacillomycin D, C15-bacillomycin D] (cyclo([X1]N[dY][dN]PE[dS]T))",Stability of antifungal activity in the presence of metal ions,"F. graminearum [1]; 10 nM Na+, K+, Ca2+, Mg2+, Cu2+, Fe2+, Fe3+, room temperature, 2.5 mg/mL, n = 3",retained stable antibacterial activity
same,"Effect of divalent cations Fe2+, Mg2+, Ca2+ on antifungal activity","F. graminearum [1]; room temperature, 2.5 mg/mL, n = 3",enhance their antifungal activity
same,"Effect of divalent cations Fe2+, Mg2+, Ca2+ on antifungal activity","F. graminearum [1]; room temperature, 2.5 mg/mL, n = 3, listed as eumelanin",significantly enhanced
same,Thermal stability of antifungal activity,"F. graminearum [1]; 7 μL of 2.5 mg/mL, colony diameter after 24 h at 28°C, n = 3",remains stable
same,Thermal stability of antifungal activity,"F. graminearum [1]; 7 μL of 2.5 mg/mL, colony diameter after 24 h at 28°C, n = 3, listed as Bacillomycin D",maintained stable antibacterial activity
same,Antifungal activity across pH range 2–12,"F. graminearum [1]; pH 2–12, room temperature",maintains good antifungal activity
same,"pH stability of antifungal activity, pH 8 or 10","F. graminearum [1]; pH 8 or 10 (pH 8–10), room temperature, 7 μL of 2.5 mg/mL, colony diameter after 24 h at 28°C, n = 3",significant enhancement of antibacterial activity; also recorded: significant increase in antifungal activity
same,"pH stability of antifungal activity, pH 14","F. graminearum [1]; pH 14, room temperature, 2.5 mg/mL, n = 3",complete loss of activity
same,"pH stability of antifungal activity, other pH conditions","F. graminearum [1]; pH values from 2 to 14 other than 8, 10 and 14, room temperature, 2.5 mg/mL, n = 3",the activity remained stable
same,Cell membrane potential (in words),F. graminearum [2],induced depolarization
same,Hyphal morphology by SEM,F. graminearum hyphae,induced abnormal development
same,Activity after treatment with proteinase K,proteinase K,retained their activity
same,Activity after treatment with papain,papain,retained their activity
same,Half-inhibitory concentration (IC50) on F. graminearum,F. graminearum [3],approximately 30 μg/mL
same,Activity after treatment with trypsin,trypsin,retained their activity
same,Activity after treatment with pepsin,pepsin,retained their activity
same,DON toxin synthesis in treated maize seeds,DON and ZEN,no detectable synthesis
same,ZEN toxin synthesis in treated maize seeds,DON and ZEN,no detectable synthesis
same,Infection of maize seeds by F. graminearum,F. graminearum [4],completely preventing infection
same,ROS levels in F. graminearum cells (in words),F. graminearum [5],induced abnormal ROS accumulation
iturin A,Cell membrane integrity of Fusarium oxysporum,Fusarium oxysporum,disrupted
same,ROS in Fusarium oxysporum,Fusarium oxysporum,significantly increased
same,"MIC, complete killing of F. graminearum conidia",F. graminearum conidia,50 µg/mL
surfactin,Intracellular ROS accumulation in F. graminearum cells,F. graminearum cells,induce intracellular ROS accumulation
